# Patent US20200289474A1, “METHODS OF TREATING PAIN WITH A THIAZOLINE ANTI-HYPERALGESIC” (priority 2019, published 2020)
# “Also recorded” adds a separate entry of the source. Read-outs that look alike come from different tables or passages of the source.
# Legend:
# [1] = rat pharmacokinetics after single PO dose; type: in vivo; conditions: for Compound 1 Concentration in Rat Plasma / Compound 1 Concentration in Rat Plasma, Average / mean Cmax / t1/2: 100 mg/kg single PO; for Compound 1 Concentration in Rat Plasma: individual animals
# Protocol: In both assays, a deuterated (Compound 1-d4) internal standard was used.
# The objective of this non-GLP study was to determine the pharmacokinetics of Compound 1 after a single oral (gavage) dose in rats, and to determine if Compound 1 undergoes epimerization in the rat. Compound 1 was administered to CD® IGS [Crl:CD(SD)] (Sprague Dawley) rats (5/sex/group) as a single oral gavage dose of 100 mg/kg in a vehicle of 0.5% aqueous HPMC. Rats were dosed at a dose volume of 10 mL/kg body weight.
# OAT1 = molecular target: T1, OAT1 (Homo sapiens, UniProt Q4U2R8); assay: transporter inhibition, HEK293 cells, probe accumulation; type: in vitro ADME
# T1 construct: expressed in transfected cells; host or cells: HEK293 cells
# T1 sequence (Q4U2R8 1-563): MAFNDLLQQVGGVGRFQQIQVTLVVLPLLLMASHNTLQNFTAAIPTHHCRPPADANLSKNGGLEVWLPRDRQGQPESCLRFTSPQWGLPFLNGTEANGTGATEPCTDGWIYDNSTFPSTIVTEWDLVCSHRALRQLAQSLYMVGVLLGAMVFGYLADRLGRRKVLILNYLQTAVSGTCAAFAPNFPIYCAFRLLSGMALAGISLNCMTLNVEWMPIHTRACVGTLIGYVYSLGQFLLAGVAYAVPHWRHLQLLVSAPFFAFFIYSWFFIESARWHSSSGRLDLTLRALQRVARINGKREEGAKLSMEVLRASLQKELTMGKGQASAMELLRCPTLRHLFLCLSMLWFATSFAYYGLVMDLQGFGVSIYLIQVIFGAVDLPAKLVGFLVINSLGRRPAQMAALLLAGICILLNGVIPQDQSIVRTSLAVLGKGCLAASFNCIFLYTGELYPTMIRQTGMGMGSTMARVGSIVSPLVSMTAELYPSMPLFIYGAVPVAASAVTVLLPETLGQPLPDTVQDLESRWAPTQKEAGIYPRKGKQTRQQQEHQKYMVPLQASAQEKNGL
# PN-mediated cytotoxicity = assay: cell-based assays of PN-mediated cytotoxicity
# [2] = effect of food on oral bioavailability in rats; type: in vivo, rat
# Protocol: The effect of food on oral bioavailability was determined.
# OAT3 = molecular target: T2, OAT3 (Homo sapiens, UniProt Q8TCC7); assay: transporter inhibition, HEK293 cells, probe accumulation; type: in vitro ADME
# T2 construct: expressed in transfected cells; host or cells: HEK293 cells
# T2 sequence (Q8TCC7 1-542): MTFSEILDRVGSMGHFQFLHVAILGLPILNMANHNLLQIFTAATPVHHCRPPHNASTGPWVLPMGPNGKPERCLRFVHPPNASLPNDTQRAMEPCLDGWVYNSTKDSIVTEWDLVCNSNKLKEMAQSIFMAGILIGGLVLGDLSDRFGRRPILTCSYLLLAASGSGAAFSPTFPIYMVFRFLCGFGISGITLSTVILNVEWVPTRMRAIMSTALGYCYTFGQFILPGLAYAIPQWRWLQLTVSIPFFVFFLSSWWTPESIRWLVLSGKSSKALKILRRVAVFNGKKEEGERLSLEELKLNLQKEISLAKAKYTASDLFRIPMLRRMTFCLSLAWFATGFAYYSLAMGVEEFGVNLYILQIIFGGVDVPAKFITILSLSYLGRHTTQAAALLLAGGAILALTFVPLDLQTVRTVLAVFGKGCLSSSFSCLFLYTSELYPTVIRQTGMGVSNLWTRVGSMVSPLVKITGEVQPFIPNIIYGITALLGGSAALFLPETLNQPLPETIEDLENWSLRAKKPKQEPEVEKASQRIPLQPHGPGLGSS
# stability in hepatocytes = type: in vitro ADME
# Text: Further metabolism work in additional species will be undertaken.
# BCRP = molecular target: T3, BCRP (Homo sapiens, UniProt Q9UNQ0); assay: transporter inhibition, MDCKII-BCRP cells, prazosin transport; type: in vitro ADME
# T3 construct: expressed in transfected cells
# T3 sequence (Q9UNQ0 1-655): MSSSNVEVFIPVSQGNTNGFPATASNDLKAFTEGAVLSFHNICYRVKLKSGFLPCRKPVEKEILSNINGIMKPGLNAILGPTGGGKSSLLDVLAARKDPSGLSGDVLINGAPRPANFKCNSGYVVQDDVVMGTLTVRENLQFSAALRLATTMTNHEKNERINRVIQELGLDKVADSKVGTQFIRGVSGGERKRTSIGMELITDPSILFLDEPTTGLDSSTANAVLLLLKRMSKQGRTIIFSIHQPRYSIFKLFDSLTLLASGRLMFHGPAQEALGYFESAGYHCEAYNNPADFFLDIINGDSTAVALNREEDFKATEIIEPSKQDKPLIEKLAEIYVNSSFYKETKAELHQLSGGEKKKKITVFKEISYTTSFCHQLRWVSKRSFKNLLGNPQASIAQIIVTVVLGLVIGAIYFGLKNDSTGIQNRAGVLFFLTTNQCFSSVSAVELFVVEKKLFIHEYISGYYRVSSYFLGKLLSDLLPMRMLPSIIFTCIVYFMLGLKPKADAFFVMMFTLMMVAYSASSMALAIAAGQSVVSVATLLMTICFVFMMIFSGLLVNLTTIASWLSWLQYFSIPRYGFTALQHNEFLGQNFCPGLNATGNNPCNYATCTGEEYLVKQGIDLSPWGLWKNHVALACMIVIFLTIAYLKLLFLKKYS
# [3] = dog 28-day repeat dose PO study; type: in vivo; conditions: for Cmax: dog 28 Day PO
# Protocol: Beagle dogs (4/sex/group plus 2/sex/group for control and high dose animals for recovery) were administered daily doses of 0, 100, 250 or 400 mg/kg/day of Compound 1 in 0.5% HPMC. […] Dogs in Group 1 (Vehicle Control) were bled once at approximately 2-4 hours post-dose on those days.
compound,measurement,setting,value
"CC1(C)SC(Nc2ccccc2O)=N[C@@H]1C(=O)O.Cl [Compound 1, (R)-2-(2-hydroxyphenylamino)-5,5-dimethyl-4,5-dihydrothiazole-4-carboxylic acid mono-hydrochloride]",Compound 1 Concentration in Rat Plasma,"[1]; Female, 0.5 h post-dose, mono-hydrochloride, 100 mg/kg",34.3 µg/mL
same,"Compound 1 Concentration in Rat Plasma, Average","[1]; Female, 1 h post-dose",60.1 µg/mL
same,Compound 1 Concentration in Rat Plasma,"[1]; Female, 1 h post-dose, mono-hydrochloride, 100 mg/kg",53.9 µg/mL
same,"Compound 1 Concentration in Rat Plasma, Average","[1]; Female, 4 h post-dose",22.6 µg/mL
same,Compound 1 Concentration in Rat Plasma,"[1]; Male, 0.5 h post-dose, mono-hydrochloride, 100 mg/kg",13.8 µg/mL
same,"Compound 1 Concentration in Rat Plasma, Average","[1]; Male, 1 h post-dose",14.9 µg/mL
same,"Compound 1 Concentration in Rat Plasma, Average","[1]; Male, 2 h post-dose",14.3 µg/mL
same,Compound 1 Concentration in Rat Plasma,"[1]; Male, 2 h post-dose, mono-hydrochloride, 100 mg/kg",16.3 µg/mL
same,Compound 1 Concentration in Rat Plasma,"[1]; Male, 8 h post-dose, mono-hydrochloride, 100 mg/kg",1.61 µg/mL
same,Compound 1 Concentration in Rat Plasma,"[1]; Male, 24 h post-dose",BQL
same,mean Cmax,[1]; females,60 µg/mL
same,t1/2,[1]; females,4 h
same,mean Cmax,[1]; males,15 µg/mL
same,t1/2,[1]; males,7 h
same,epimerization in vivo (chiral column),[1]; rat plasma,did not provide any evidence of epimerization
same,inhibition,OAT1,does not inhibit
same,effect in PN-mediated cytotoxicity,PN-mediated cytotoxicity,protective
same,"peak plasma concentrations, fasted compared to fed",[2]; 10 mg/kg oral,significantly increased peak plasma concentrations
same,"differences in pharmacokinetic properties, fed vs fasted",[2]; 100 mg/kg oral,No statistically significant differences
same,inhibition,OAT3,weakly inhibits
same,stability in hepatocytes,"stability in hepatocytes; dog hepatocytes, mono-hydrochloride",stable; also recorded: metabolic stability
same,stability in hepatocytes,"stability in hepatocytes; human hepatocytes, mono-hydrochloride",stable; also recorded: metabolic stability
same,stability in hepatocytes,stability in hepatocytes; monkey hepatocytes,metabolic stability
same,stability in hepatocytes,"stability in hepatocytes; rat hepatocytes, mono-hydrochloride",stable; also recorded: metabolic stability
same,inhibition,BCRP,modestly inhibits
same,Tmax at 28 days,"[3]; both sexes, beagle, dog, in vivo, po, dog 28-day PO, all animals, read-out: median tmax",1 h
same,Tmax at 28 days,"[3]; both sexes, beagle, dog, in vivo, po, dog 28-day study (summary), read-out: Tmax",≤ 1 h
same,Cmax at 28 days,"[3]; both sexes, beagle, in vivo, po, dog 28-day pivotal study, at some doses",> 100 µg/mL
same,mean t1/2,"[3]; both, beagle, dog, in vivo, po",3.5 h
same,Cmax,"[3]; Day 1, 100 mg/kg, F",69.3 µg/mL
same,Cmax,"[3]; Day 1, 100 mg/kg, M",49.9 µg/mL
same,Cmax,"[3]; Day 1, 250 mg/kg, F",101 µg/mL
same,Cmax,"[3]; Day 1, 250 mg/kg, M",104 µg/mL
same,Cmax,"[3]; Day 1, 400 mg/kg, F",129 µg/mL
same,Cmax,"[3]; Day 1, 400 mg/kg, M",128 µg/mL
same,Cmax,"[3]; Day 15, 100 mg/kg, F",53.0 µg/mL
same,Cmax,"[3]; Day 15, 100 mg/kg, M",50.4 µg/mL
same,Cmax,"[3]; Day 15, 250 mg/kg, F",94.6 µg/mL
same,Cmax,"[3]; Day 15, 250 mg/kg, M",88.0 µg/mL
same,Cmax,"[3]; Day 15, 400 mg/kg, F",123 µg/mL
same,Cmax,"[3]; Day 15, 400 mg/kg, M",112 µg/mL
same,Cmax,"[3]; Day 28, 100 mg/kg, F",60.8 µg/mL
same,Cmax,"[3]; Day 28, 100 mg/kg, M",45.0 µg/mL
same,Cmax,"[3]; Day 28, 250 mg/kg, F",89.5 µg/mL
same,Cmax,"[3]; Day 28, 250 mg/kg, M",105 µg/mL
same,Cmax,"[3]; Day 28, 400 mg/kg, F",131 µg/mL
same,Cmax,"[3]; Day 28, 400 mg/kg, M",125 µg/mL
